The nature of the data set: in vitro. To be noted: human, hela cells, % viability.

The source of these data is paper PMC12040169 (PLOS Biology, 2025).

The structures appear in SMILES notation.

What is called viability is a read-out of living cells in per cent, often relative to untreated cells. As to `CN1CCN(C)C(COc2cccc(C(F)(F)F)n2)C1` (centres unmarked) [CBK113292], the viability at 28.5 h, 10 µM was found to be 106%.
Regarding `FC(F)(F)c1ccnc(OC2CCNCC2)n1` [CBK113294], the viability at 28.5 h, 10 µM was found to be 118%.
To `FC(F)(F)c1ccnc(OC2CCNC2)n1` (centres unmarked) [CBK113296] belongs 92.1%; to `CN1CCN(C)C(COc2nccc(C(F)(F)F)n2)C1` (centres unmarked) [CBK113298], 95.2%; to `CN1CCC(Oc2nc3ccccc3nc2C(F)(F)F)CC1` [CBK113299], 90.1%.
Consider `COc1ccc(C)cc1S(=O)(=O)n1ccc2c(CNC3CCN(C)CC3)cccc21` [CBK113308T], for which the viability at 28.5 h, 10 µM amounted to 90.6%.
To `COc1ccc(C)cc1S(=O)(=O)n1ccc2c(CNC3CCN(C(C)C)CC3)cccc21` [CBK113310T] belongs 117%; to `COc1ccc(C)cc1S(=O)(=O)n1ccc2c(CNC3CC(C)(C)NC(C)(C)C3)cccc21` [CBK113311T], 83.1%; to `COc1ccc(C)cc1S(=O)(=O)n1ccc2c(CN3CCC(N)CC3)cccc21` [CBK113312T], 78.6%.
The value for `c1cc(-c2cncc(-c3ccsc3)n2)cs1` [CBK113356] was 95.7%; that for `C#CCOc1cncc(Cl)n1` [CBK113370] was 87.7%; that for `Clc1cncc(-c2ccccc2)n1` [CBK113371] was 93.8%.
To `CC(C)(C)OC(=O)N1CCN(c2ccc(Cl)nn2)CC1` [CBK113381] belongs 96.2%; to `OCCOc1ccnc2ccccc12` [CBK113395], 95.8%.
For the molecule `CC(C)Nc1nccnc1OCCN1CCOCC1` [CBK113410], the viability at 28.5 h, 10 µM worked out at 104%.
Consider `CN(C)CCCOc1nccnc1N1CCCC1` [CBK113427], for which the viability at 28.5 h, 10 µM is 89.6%.
For the molecule `FC(F)(F)c1ccnc(OCCN2CCNCC2)c1` [CBK113459], the viability at 28.5 h, 10 µM was 97.4%.
The value for `CN1CCN(C)C(COc2cc(C(F)(F)F)ccn2)C1` (centres unmarked) [CBK113460] was 90.7%; that for `FC(F)(F)c1ccc(OCCN2CCOCC2)nc1` [CBK113461] was 101%.
To `FC(F)(F)c1ccc(OCCN2CCNCC2)nc1` [CBK113462] belongs 110%; to `COc1ccc(SCCCCN2CCC3(CC2)OCCc2c3[nH]c3ccccc23)cc1` [CBK113464T], 0.266%; to `Cc1ccc(C(=O)NCCCN2CCC3(CC2)OCCc2c3[nH]c3ccccc23)cc1` [CBK113485], 85.5%.
The value for `Cc1ccc(-n2sc(=O)n(CCc3ccccc3)c2=O)cc1` [CBK113496] was 110%.
`COc1ccc(OCCCCCN2CCC3(CC2)OCCc2c3[nH]c3ccccc23)cc1` [CBK113517T]: the viability at 28.5 h, 10 µM amounted to 0%.
Take `CCCc1n[nH]c(-c2ccccc2Cl)c1C(=O)OCC` [CBK113547]: the viability at 28.5 h, 10 µM was 107%.
The value for `CCCc1n[nH]c(-c2ccc(Cl)cc2Cl)c1C(=O)OCC` [CBK113548] was 107%.
The value for `FCCOc1cncc(Cl)n1` [CBK113553] was 115%.
The value for `Clc1nccnc1NCCOc1ccccc1` [CBK113564] was 93.8%; that for `O=C1N=C(NC2C3CC4CC(C3)CC2C4)OC12CCCC2` (centres unmarked) [CBK113576] was 94.2%; that for `O=c1sn(C2CCCCC2)c(=O)n1Cc1ccc(F)cc1` [CBK113604] was 90.8%.
With `Cc1ccccc1-n1sc(=O)n(Cc2ccc(F)cc2)c1=O` [CBK113605], the viability at 28.5 h, 10 µM is 101%.
To `CC(=O)OC1CCn2c1nc1ccccc12` (centres unmarked) [CBK113621] belongs 92.6%.
The value for `Cc1ccc2c(c1)nc1n2CCC1O` (centres unmarked) [CBK113622] was 88.1%; that for `OC1CCn2c1nc1cc(Cl)ccc12` (centres unmarked) [CBK113623] was 79.2%; that for `CC(=O)Nc1cccc(-c2nc(-c3ccc(C#N)cc3)cnc2N)c1` [CBK113659] was 100%.
The value for `O=C1CSC2c3ccccc3C(=O)N2c2ccccc21` (centres unmarked) [CBK113670] was 108%; that for `NS(=O)(=O)c1cc(C(=O)O)ccc1Cl` [CBK113676] was 108%; that for `Cn1c(=O)sn(-c2ccccc2)c1=O` [CBK113677] was 115%.
With `Cc1oc(S(=O)(=O)N(C)C)cc1C(=O)O` [CBK113681], the viability at 28.5 h, 10 µM was 98.1%.
The value for `O=C1c2ccccc2C(=O)N1c1ccccn1` [CBK113682] was 99.5%.
To `CC(C)c1ccc(N2C(=O)SC(c3ccccc3)C2=O)cc1` (centres unmarked) [CBK113687] belongs 91.1%.
To `Cc1ccc(NC(=O)c2ccccc2NS(=O)(=O)c2ccc(C(C)C)cc2)cc1` [CBK113800] belongs 77.8%.
As for `Cc1cc(C)cc(NC(=O)c2ccccc2NS(=O)(=O)c2ccc(F)c(F)c2F)c1` [CBK113886], the viability at 28.5 h, 10 µM amounted to 89.1%.
To `Cc1cc(C)cc(NC(=O)c2ccccc2NS(=O)(=O)c2cccc(Cl)c2)c1` [CBK113887] belongs 94.9%; to `COc1ccc(NS(=O)(=O)c2ccc(Cl)cc2Cl)c(C(=O)NCc2ccccc2)c1` [CBK113943], 98.4%; to `COc1ccc(NS(=O)(=O)c2c(Cl)cccc2Cl)c(C(=O)NCc2ccccc2)c1` [CBK113952], 79.8%.
To `COc1ccc(NS(=O)(=O)c2cccc(Cl)c2C)c(C(=O)NCc2ccccc2)c1` [CBK113953] belongs 85.3%; to `COc1ccc(C)cc1S(=O)(=O)Nc1cc(Cl)ccc1C(=O)NCc1ccccc1` [CBK113954], 85.5%.
The value for `COc1ccc(CNC(=O)c2ccccc2NS(=O)(=O)c2cc(Cl)ccc2Cl)cc1` [CBK113964] was 101%; that for `CCCC(CCC)NC(=O)c1ccc(-n2nc(C(=O)OCC)c(Cl)c2C)cc1` [CBK114323] was 93.9%; that for `CCOC(=O)c1cnc(C2CC2)nc1NCc1cccc(C)c1C` [CBK114707] was 102%.
Regarding `COCc1nnc(Sc2nccnc2NC(C)C)s1` [CBK115204], the viability at 28.5 h, 10 µM turned out to be 99.6%.
To `FC(F)(F)c1ccc(Sc2ccncc2)nc1` [CBK115217] belongs 108%; to `COCc1nnc(Sc2ccc(C(F)(F)F)cn2)s1` [CBK115219], 100%.
To `Cc1nnc(Sc2cccc(C(F)(F)F)n2)s1` [CBK115222] belongs 95.4%; to `Cc1ccccc1Sc1ncccc1C(F)(F)F` [CBK115231], 104%.
The value for `Cc1ccccc1Sc1cc(C(F)(F)F)ccn1` [CBK115233] was 94.4%; that for `FC(F)(F)c1ccnc(Sc2cccc(Cl)c2)c1` [CBK115234] was 94.8%.
Regarding `FC(F)(F)c1cccc(Sc2cccs2)n1` [CBK115242], the viability at 28.5 h, 10 µM amounted to 91.5%.
To `FC(F)(F)c1ccnc(Sc2cccc(Cl)c2)n1` [CBK115247] belongs 98.5%; to `CC(C)Nc1nc2ccccc2nc1Sc1ccncc1` [CBK115250], 102%; to `CC(C)Nc1nc2cc(Cl)c(Cl)cc2nc1Sc1nc[nH]n1` [CBK115261], 93.3%.
To `Nc1nnc(Sc2nc3cc(Cl)c(Cl)cc3nc2N2CCCC2)s1` [CBK115267] belongs 98.9%; to `Oc1cccc(Sc2cc(C(F)(F)F)ccn2)c1` [CBK115273], 97.7%.
The value for `c1cnc(N2CCCC2)c(OC2CCNC2)n1` (centres unmarked) [CBK115284] was 98.3%; that for `NCCCOc1cc(N2CCCC2)ncn1` [CBK115285] was 106%; that for `NCCCOc1nc2ccccc2nc1N1CCCC1` [CBK115287] was 95.8%.
As for `c1ccc2nc(N3CCCC3)c(OC3CCNC3)nc2c1` (centres unmarked) [CBK115288], the viability at 28.5 h, 10 µM stood at 99.9%.
To `CN1CCC(Oc2nc3cc(Cl)c(Cl)cc3nc2N2CCCC2)CC1` [CBK115290] belongs 82.2%; to `CN1CCN(C)C(COc2nc3cc(Cl)c(Cl)cc3nc2N2CCCC2)C1` (centres unmarked) [CBK115294], 92%.
Regarding `CCOC(=O)c1[nH]c2c([N+](=O)[O-])cccc2c1O` [CBK115315], the viability at 28.5 h, 10 µM stood at 88.1%.
To `COc1cc(C(C[N+](=O)[O-])c2c(C)[nH]c3ccccc23)ccc1O` (centres unmarked) [CBK115317] belongs 82.9%; to `COc1ccc2c(c1OC)C(=O)N(c1cccc([N+](=O)[O-])c1)C2` [CBK115318], 99.5%.
The value for `Cc1cccc(-n2c(C#N)c(O)c3ccccc32)c1C` [CBK115319] was 106%.
Consider `N#Cc1ccccc1N1C(=O)c2cccc([N+](=O)[O-])c2C1=O` [CBK115322], for which the viability at 28.5 h, 10 µM was determined as 94.1%.
To `O=C1c2cccc([N+](=O)[O-])c2C(=O)N1c1cc(Cl)cc(Cl)c1` [CBK115326] belongs 112%.
The value for `Cc1c(C(=O)O)c2cc(O)ccc2n1-c1ccccc1` [CBK115329] was 103%; that for `COc1ccc(-n2c(C)c([N+](=O)[O-])c3ccc(O)cc32)cc1` [CBK115330] was 85%; that for `COc1cc(C)c2c(N)c(C(C)=O)sc2n1` [CBK115336] was 94%.
To `COC(=O)c1cc(C)nc2sc(C)c(N)c12` [CBK115343] belongs 85.8%; to `Cc1ccc2c(N)c(C(=O)c3ccccc3)sc2n1` [CBK115347], 88.1%.
With `CSc1cccc(NC(=O)c2sc3nc(C)cc(C)c3c2N)c1` [CBK115349], the viability at 28.5 h, 10 µM was found to be 94.7%.
The value for `CCOC(=O)c1c(CN(C)C)n(-c2ccccc2)c2cc(Br)c(OC)cc12` [CBK115360] was 117%; that for `COc1ccc(C(=O)c2sc3nc(C)cc(C)c3c2N)cc1` [CBK115362] was 87.7%.
On to `O=C1Nc2ccc(C(=O)NCC(O)CO)cc2/C1=C/c1c[nH]c2ncccc12` (centres unmarked) [CBK115363C], for which the viability at 28.5 h, 10 µM was found to be 95.3%.
`CC(=O)OC1CCn2c1nc1cc(C(F)(F)F)ccc12` (centres unmarked) [CBK115367]: the viability at 28.5 h, 10 µM was determined as 75.1%.
